Results from paper PMC7187165, “Structure‐Based Design, Synthesis, and Biological Evaluation of Triazole‐Based smHDAC8 Inhibitors” (Chemmedchem, 2020).

Assays:
smHDAC8 = biological target: T1, smHDAC8 (Schistosoma mansoni, UniProt A5H660); test: biochemical; assay type: biochemical; details: for inhibition at 10 µM: read-out: smHDAC8 (% inhibition, Fluor de Lys); for inhibition at 5 µM / inhibition at 50 µM: pretest; for inhibition at 5 µM: read-out: smHDAC8 % inhibition @ 5 μM (Fluor de Lys); for inhibition at 50 µM: read-out: smHDAC8 % inhibition @ 50 μM (Fluor de Lys)
T1 construct: made in house; host or cells: E. coli
T1 sequence (A5H660 1-440): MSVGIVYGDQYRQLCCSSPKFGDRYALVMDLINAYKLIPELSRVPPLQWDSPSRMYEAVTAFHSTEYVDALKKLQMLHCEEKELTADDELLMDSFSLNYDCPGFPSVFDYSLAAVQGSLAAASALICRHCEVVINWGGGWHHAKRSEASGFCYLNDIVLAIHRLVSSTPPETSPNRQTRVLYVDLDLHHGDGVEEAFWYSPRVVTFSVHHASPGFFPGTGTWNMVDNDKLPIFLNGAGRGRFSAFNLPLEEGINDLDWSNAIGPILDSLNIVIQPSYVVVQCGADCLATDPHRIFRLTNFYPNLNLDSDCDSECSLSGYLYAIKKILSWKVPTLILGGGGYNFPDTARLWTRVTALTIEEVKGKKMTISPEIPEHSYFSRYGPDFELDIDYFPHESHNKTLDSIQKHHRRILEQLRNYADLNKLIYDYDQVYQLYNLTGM

hsHDAC1 [1] = biological target: T2, hsHDAC1 (Homo sapiens, UniProt Q13547); test: In vitro hsHDAC1 inhibition (ZMAL substrate, trypsin developer); assay type: biochemical; details: @ 10 μM; read-out: hsHDAC1 (% inhibition, ZMAL)
T2 sequence (Q13547 whole entry): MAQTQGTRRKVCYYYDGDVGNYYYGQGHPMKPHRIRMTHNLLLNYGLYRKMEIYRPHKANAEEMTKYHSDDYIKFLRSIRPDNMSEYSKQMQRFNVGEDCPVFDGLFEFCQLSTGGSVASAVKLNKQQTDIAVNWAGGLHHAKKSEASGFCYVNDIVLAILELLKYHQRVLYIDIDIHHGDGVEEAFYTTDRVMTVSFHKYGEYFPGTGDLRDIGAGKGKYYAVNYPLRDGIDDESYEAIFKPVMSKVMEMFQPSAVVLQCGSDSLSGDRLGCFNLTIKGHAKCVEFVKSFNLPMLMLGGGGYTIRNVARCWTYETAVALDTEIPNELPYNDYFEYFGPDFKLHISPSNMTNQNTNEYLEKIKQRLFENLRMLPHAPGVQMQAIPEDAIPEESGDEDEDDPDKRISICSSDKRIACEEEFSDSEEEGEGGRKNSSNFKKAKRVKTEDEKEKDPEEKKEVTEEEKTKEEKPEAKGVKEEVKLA

hsHDAC8 [2] = biological target: T3, hsHDAC8 (Homo sapiens, UniProt Q9BY41); test: In vitro hsHDAC8 inhibition, homogeneous fluorescence assay (Fluor de Lys substrate); assay type: biochemical; details: n=2; mean ± S.E.M.
T3 construct: made in house
T3 sequence (Q9BY41 1-377): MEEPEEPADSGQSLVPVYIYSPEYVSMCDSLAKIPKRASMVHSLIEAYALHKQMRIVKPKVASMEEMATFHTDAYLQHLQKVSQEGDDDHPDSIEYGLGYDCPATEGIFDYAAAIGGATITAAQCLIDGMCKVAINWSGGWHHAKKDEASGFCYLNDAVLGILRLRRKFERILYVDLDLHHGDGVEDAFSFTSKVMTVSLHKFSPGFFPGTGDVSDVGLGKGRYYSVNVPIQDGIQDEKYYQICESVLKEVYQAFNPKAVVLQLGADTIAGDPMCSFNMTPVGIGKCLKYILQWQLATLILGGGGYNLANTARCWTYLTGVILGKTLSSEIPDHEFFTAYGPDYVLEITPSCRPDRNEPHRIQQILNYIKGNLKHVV

hsHDAC6 = biological target: T4, hsHDAC6 (Homo sapiens, UniProt Q9UBN7); test: In vitro hsHDAC6 inhibition (ZMAL substrate, trypsin developer); assay type: biochemical; details: @ 10 μM
T4 sequence (Q9UBN7 1-1215): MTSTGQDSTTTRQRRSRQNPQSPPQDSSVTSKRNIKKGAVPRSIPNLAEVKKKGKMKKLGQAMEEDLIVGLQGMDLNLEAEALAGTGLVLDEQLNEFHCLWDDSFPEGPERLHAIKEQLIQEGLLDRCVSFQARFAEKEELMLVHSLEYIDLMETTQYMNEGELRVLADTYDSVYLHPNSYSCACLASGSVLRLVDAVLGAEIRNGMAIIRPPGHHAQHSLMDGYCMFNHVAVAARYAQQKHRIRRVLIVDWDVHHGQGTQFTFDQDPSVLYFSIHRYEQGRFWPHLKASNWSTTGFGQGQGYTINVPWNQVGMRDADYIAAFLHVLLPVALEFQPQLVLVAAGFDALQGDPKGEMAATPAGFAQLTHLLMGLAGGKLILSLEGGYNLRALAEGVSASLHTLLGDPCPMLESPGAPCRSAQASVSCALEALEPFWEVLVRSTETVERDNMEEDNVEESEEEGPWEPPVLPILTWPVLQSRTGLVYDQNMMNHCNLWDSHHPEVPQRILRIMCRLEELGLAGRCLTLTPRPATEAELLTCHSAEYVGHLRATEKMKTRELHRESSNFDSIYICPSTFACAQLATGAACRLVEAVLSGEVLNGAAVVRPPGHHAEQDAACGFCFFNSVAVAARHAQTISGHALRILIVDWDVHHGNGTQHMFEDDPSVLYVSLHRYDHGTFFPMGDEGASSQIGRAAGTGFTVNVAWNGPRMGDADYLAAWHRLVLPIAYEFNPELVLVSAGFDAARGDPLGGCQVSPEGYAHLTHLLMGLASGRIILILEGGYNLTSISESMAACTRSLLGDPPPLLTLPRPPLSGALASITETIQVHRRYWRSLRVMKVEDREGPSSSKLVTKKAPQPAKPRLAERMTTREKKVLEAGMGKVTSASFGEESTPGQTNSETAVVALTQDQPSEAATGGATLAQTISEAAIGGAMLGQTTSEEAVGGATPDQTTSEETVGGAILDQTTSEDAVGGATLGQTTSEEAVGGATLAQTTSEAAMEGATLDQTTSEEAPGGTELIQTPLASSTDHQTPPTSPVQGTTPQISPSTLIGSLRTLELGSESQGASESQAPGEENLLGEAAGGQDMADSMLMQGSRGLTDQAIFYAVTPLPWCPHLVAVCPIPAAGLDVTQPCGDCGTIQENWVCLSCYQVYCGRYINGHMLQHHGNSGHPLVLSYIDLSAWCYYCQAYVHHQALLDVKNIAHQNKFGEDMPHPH

[3] = test system: S. mansoni larvae (schistosomula); test: Schistosome viability testing, resazurin-based fluorescence assay; assay type: cell-based, Schistosoma mansoni
Description: Selected compounds (Table 4) were tested for their effects on the viability of S. mansoni larvae (schistosomula) using a resazurin‐based fluorescence assay that measures mitochondrial activity. Assays were carried out in triplicate on two separate batches of schistosomula and the results are expressed as the percentage of the value obtained with the solvent (DMSO). Initial testing was done at 10 μM as part of a high‐throughput screening procedure and compounds provoking at least a 25 % reduction in viability were tested at 20 μM to determine a dose‐response. […] However, the level of reduction obtained was mediocre and this compound was not considered for further testing. […] A variety of schistosome viability assays are currently used in the field [e. g. […] However, since we have compared compounds that a priori have the same biological target, it is unlikely that they will have different effects on the parasite and that a different viability assay, for example based on morphological characteristics,52 would give different results. Nevertheless, in view of the potency of the triazole‐based smHDAC8 inhibitors on the enzyme, their further development, aimed at improving their bioavailability, is justified.
Schistosome viability testing: The resazurin‐based assay to determine the effects of novel inhibitors targeting smHDAC8 on the viability of S. mansoni schistosomula was carried out exactly as previously described.27, 62 Briefly, newly transformed schistosomula (NTS) were obtained in vitro as previously described63 by mechanical transformation of S. mansoni cercaria. A suspension of NTS was prepared at a concentration of 100 per 100 μL using Medium 199 (Invitrogen) supplemented with 10 % fetal calf serum (Gibco), penicillin (50 U×mL^−1), streptomycin (50 μg×mL^−1), and rifampicin (60 μg×mL^−1). Schistosomula were kept in culture for 3 h at 37 °C and 5 % CO2 prior to use in screening. Drug stock solutions of 20 mM in DMSO were used. Mid‐dilutions were performed in 100 % DMSO and 1 μL added to 100 μL/well of M199 medium in black 96 well plates (Nunc, UK) with supplemented Medium 199 and 100 μL of the prepared NTS suspension (100 NTS/well). Live and dead schistosomula (treated with 70 % ethanol) were used as positive and negative controls. Experiments were carried out in triplicate wells in two biological replicates and the compounds were tested at final concentrations of 10 and 20 μM. After 48 h of drug exposure, 20 μL of resazurin solution (Abd Serotec) were added to each well. Finally, after 72 h of exposure, the fluorescence intensity of the highly red fluorescent resorufin product was measured using an excitation wavelength of 530 nm and an emission wavelength of 590 nm in an Infinite M200 Pro microplate reader (TECAN). Background fluorescence of the drug containing medium were determined for each drug dilution using wells containing only DMSO as control.

hsHDAC8 [4] = biological target: T3, hsHDAC8; design: method as in PMID 19007204; details: cited from earlier work
hsHDAC1 [5] = biological target: T2, hsHDAC1; design: method as in PMID 19007204; details: cited from earlier work
[6] = Schistosoma mansoni, 72 h, read-out: % viability of S. mansoni schistosomula

Row | Compound | inhibition at 10 µM (smHDAC8; @ 10 μM, pretest n=1) | inhibition at 5 µM (smHDAC8) | inhibition at 50 µM (smHDAC8) | melting point | other results
1 | O=C(NO)c1cn(Cc2ccc(C(F)(F)F)cc2)nn1 [Compound 2 e] | 52.5% |  |  | 192 °C | IC50 (smHDAC8): 5.12 ± 0.64 µM; inhibition at 10 µM (hsHDAC1 [1]): 3.3 ± 2.5%; IC50 (hsHDAC8 [2]): 3.47 ± 0.53 µM; inhibition at 10 µM (hsHDAC6): 2.2 ± 0.5%
2 | O=C(NO)c1cn(Cc2ccc(F)cc2)nn1 [Compound 2 d] | 36.1% |  |  |  | 
3 | O=C(NO)c1cn(Cc2ccccc2)nn1 [Compound 2 c] | 39.6% |  |  | 183 °C | inhibition of hsHDAC8 (in words) (hsHDAC8 [4]): weakly inhibit; inhibition of hsHDAC1 (in words) (hsHDAC1 [5]): weakly inhibit
4 | Cl.O=C(NO)c1cn(-c2ccc(C#Cc3ccc(CN4CCOCC4)cc3)cc2)nn1 [Compound 2 i] | 48% |  |  | 239 °C (dec.) | 

Further lines, with some results ahead:

Row | inhibition at 10 µM (smHDAC8; @ 10 μM, pretest n=1) | inhibition at 5 µM (smHDAC8) | inhibition at 50 µM (smHDAC8) | melting point | Compound | other results
5 | 6.8% |  |  |  | O=C(NO)c1cn(-c2ccc(C#CC#Cc3ccccc3)cc2)nn1 [Compound 2 j, N ‐Hydroxy‐1‐[4‐(4‐phenylbuta‐1,3‐diynyl)phenyl]‐1H‐1,2,3‐triazole‐4‐carboxamide] | smHDAC8 (% inhibition, Fluor de Lys) (smHDAC8; @ 10 μM, pretest n=1): nearly no inhibitory activity
6 |  | 23.4% | 75.4% |  | O=C(NO)c1cn(-c2ccccc2C(=O)c2ccccc2)nn1 [Compound 32, 1‐(2‐Benzoylphenyl)‐N‐hydroxy‐1H‐1,2,3‐triazole‐4‐carboxamide] | 
7 |  | 51.4% | 91.5% |  | O=C(NO)c1cn(-c2cc(Cl)ccc2Oc2ccccc2)nn1 [Compound 29, 1‐(5‐Chloro‐2‐phenoxyphenyl)‐N‐hydroxy‐1H‐1,2,3‐triazole‐4‐carboxamide] | viability at 10 µM [3, 6]: 64.2%; viability at 20 µM [3, 6]: 49.9%; reduction in viability of schistosomula (in words) ([3]; at 10 and 20 μM): significant reduction in viability
8 |  | 19.5% | 63.5% |  | O=C(NO)c1cn(-c2ccccc2O)nn1 [Compound 12] | 
